For 31 compounds, EC50 results are on record in patent US8143263B2, “Therapeutic agents” (Astrazeneca AB, priority 2008, dated 2012).

pEC50: −log10 of the molar value. Some results are limits rather than exact numbers.

The assay concerns the target T1, recombinant human pancreatic GLK (Homo sapiens, UniProt P35557).
T1 sequence (P35557 1-465): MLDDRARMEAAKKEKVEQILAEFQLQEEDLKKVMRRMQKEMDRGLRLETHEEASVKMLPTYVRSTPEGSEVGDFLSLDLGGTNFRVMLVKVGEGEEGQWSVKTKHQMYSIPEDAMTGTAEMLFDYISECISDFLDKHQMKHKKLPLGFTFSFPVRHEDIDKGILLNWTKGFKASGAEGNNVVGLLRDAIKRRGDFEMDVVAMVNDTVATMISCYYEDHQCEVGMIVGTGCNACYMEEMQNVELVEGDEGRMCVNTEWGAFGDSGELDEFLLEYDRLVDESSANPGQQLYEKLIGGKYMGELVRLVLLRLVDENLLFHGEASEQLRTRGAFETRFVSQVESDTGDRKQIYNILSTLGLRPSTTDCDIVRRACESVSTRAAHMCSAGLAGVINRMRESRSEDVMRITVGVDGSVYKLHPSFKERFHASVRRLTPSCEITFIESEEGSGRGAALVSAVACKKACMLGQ
As to the kind of experiment: biochemical.
For `COCC(Sc1ncnc2c1cnn2-c1ccccc1Cl)C(=O)Nc1ccc(C)cn1` (stereo not shown) [Example 62, 2-{[1-(2-Chlorophenyl)-1H-pyrazolo[3,4-d]pyrimidin-4-yl]thio}-3-methoxy-N-(5-methylpyridin-2-yl)propanamide], the pEC50 was 4.92.
On to `CCCCCCC(Sc1ncnc2c1cnn2-c1ccccc1Cl)C(=O)Nc1nc(C)cs1` (stereo not shown) [Example 63, 2-{[1-(2-chlorophenyl)-1H-pyrazolo[3,4-d]pyrimidin-4-yl]thio}-N-(4-methyl-1,3-thiazol-2-yl)octanamide], for which the pEC50 is less than 5.35.
To `CCCCCCC(Sc1ncnc2c1cnn2-c1ccccc1Cl)C(=O)Nc1ccon1` (stereo not shown) [Example 64, 2-{[1-(2-chlorophenyl)-1H-pyrazolo[3,4-d]pyrimidin-4-yl]thio}-N-isoxazol-3-yloctanamide] belongs 5.00; to `CCOC(Sc1ncnc2c1cnn2-c1ccccc1OC)C(=O)Nc1nc(C)cs1` (stereo not shown) [Example 71, 2-Ethoxy-2-{[1-(2-methoxyphenyl)-1H-pyrazolo[3,4-d]pyrimidin-4-yl]thio}-N-(4-methyl-1,3-thiazol-2-yl)acetamide], 5.80; to `CCOC(Sc1ncnc2c1cnn2-c1ccccc1OC)C(=O)Nc1ccon1` (stereo not shown) [Example 72, 2-Ethoxy-N-isoxazol-3-yl-2-{[1-(2-methoxyphenyl)-1H-pyrazolo[3,4-d]pyrimidin-4-yl]thio}acetamide], 5.54.
As for `COCCC(Oc1ncnc2c1cnn2C(C)C)C(=O)Nc1ccc(C)cn1` (stereo not shown) [Example 76, 2-[(1-isopropyl-1H-pyrazolo[3,4-d]pyrimidin-4-yl)oxy]-4-methoxy-N-(5-methylpyridin-2-yl)butanamide], the pEC50 was not above 4.00.
Regarding `Cc1ccc(NC(=O)C(Oc2ncnc3c2cnn3-c2ccccc2Cl)C(C)C)nc1` (stereo not shown) [Example 83, 2-(1-(2-chlorophenyl)-1H-pyrazolo[3,4-d]pyrimidin-4-yloxy)-3-methyl-N-(5-methylpyridin-2-yl)butanamide], the pEC50 was 6.06.
For the compound `Cc1ccc(NC(=O)[C@@H](Oc2ncnc3c2cnn3-c2ccccc2Cl)C(C)C)nc1` [Example 84, (2S)-2-(1-(2-chlorophenyl)-1H-pyrazolo[3,4-d]pyrimidin-4-yloxy)-3-methyl-N-(5-methylpyridin-2-yl)butanamide], the pEC50 was 6.33.
With `Cc1ccc(NC(=O)[C@H](Oc2ncnc3c2cnn3-c2ccccc2Cl)C(C)C)nc1` [Example 85, (2R)-2-(1-(2-chlorophenyl)-1H-pyrazolo[3,4-d]pyrimidin-4-yloxy)-3-methyl-N-(5-methylpyridin-2-yl)butanamide], the pEC50 is 5.02.
Consider `Cc1ccc(NC(=O)[C@@H](Oc2ncnc3c2cnn3-c2ncccc2Cl)C(C)C)nc1` [Example 86, (2S)-2-(1-(3-chloropyridin-2-yl)-1H-pyrazolo[3,4-d]pyrimidin-4-yloxy)-3-methyl-N-(5-methylpyridin-2-yl)butanamide], for which the pEC50 was 5.82.
Regarding `COC[C@H](Oc1ncnc2c1cnn2-c1ccccc1Cl)C(=O)Nc1ccc(C)cn1` [Example 87, (2S)-2-(1-(2-chlorophenyl)-1H-pyrazolo[3,4-d]pyrimidin-4-yloxy)-3-methoxy-N-(5-methylpyridin-2-yl)propanamide], the negative-log EC50 (pEC50) is 6.49.
`COC[C@@H](Oc1ncnc2c1cnn2-c1ccccc1Cl)C(=O)Nc1ccc(C)cn1` [Example 88, (2R)-2-(1-(2-chlorophenyl)-1H-pyrazolo[3,4-d]pyrimidin-4-yloxy)-3-methoxy-N-(5-methylpyridin-2-yl)propanamide]: the pEC50 is 5.29.
In the case of `COC[C@H](Oc1ncnc2c1cnn2-c1ncccc1Cl)C(=O)Nc1ccc(C)cn1` [Example 89, (2S)-2-(1-(3-chloropyridin-2-yl)-1H-pyrazolo[3,4-d]pyrimidin-4-yloxy)-3-methoxy-N-(5-methylpyridin-2-yl)propanamide] it was 5.82.
Regarding `COC[C@H](Oc1ncnc2c1cnn2-c1ncccc1Cl)C(=O)Nc1cnc(C)cn1` [Example 90, (2S)-2-(1-(3-chloropyridin-2-yl)-1H-pyrazolo[3,4-d]pyrimidin-4-yloxy)-3-methoxy-N-(5-methylpyrazin-2-yl)propanamide], the pEC50 was 5.27.
Consider `Cc1ccc(NC(=O)[C@H](COC(C)C)Oc2ncnc3c2cnn3-c2ncccc2Cl)nc1` [Example 91, (2S)-2-(1-(3-chloropyridin-2-yl)-1H-pyrazolo[3,4-d]pyrimidin-4-yloxy)-3-isopropoxy-N-(5-methylpyridin-2-yl)propanamide], for which the pEC50 was 6.80.
In the case of `Cc1cnc(NC(=O)[C@H](COC(C)C)Oc2ncnc3c2cnn3-c2ncccc2Cl)cn1` [Example 92, (2S)-2-(1-(3-chloropyridin-2-yl)-1H-pyrazolo[3,4-d]pyrimidin-4-yloxy)-3-isopropoxy-N-(5-methylpyrazin-2-yl)propanamide] it was 6.38.
In the case of `Cc1nsc(NC(=O)[C@H](COC(C)C)Oc2ncnc3c2cnn3-c2ncccc2Cl)n1` [Example 93, (2S)-2-(1-(3-chloropyridin-2-yl)-1H-pyrazolo[3,4-d]pyrimidin-4-yloxy)-3-isopropoxy-N-(3-methyl-1,2,4-thiadiazol-5-yl)propanamide], the pEC50 was 5.48.
As for `Cc1cnc(NC(=O)[C@@H](Oc2ncnc3c2cnn3-c2ncccc2Cl)C(C)C)cn1` [Example 94, (2S)-2-(1-(3-chloropyridin-2-yl)-1H-pyrazolo[3,4-d]pyrimidin-4-yloxy)-3-methyl-N-(5-methylpyrazin-2-yl)butanamide], the pEC50 was 5.04.
With `COC[C@H](Oc1ncnc2c1cnn2-c1ccc(F)cc1Cl)C(=O)Nc1cnc(C)cn1` [Example 95, (2S)-2-(1-(2-chloro-4-fluorophenyl)-1H-pyrazolo[3,4-d]pyrimidin-4-yloxy)-3-methoxy-N-(5-methylpyrazin-2-yl)propanamide], the pEC50 was 4.41.
With `COC[C@H](Oc1ncnc2c1cnn2-c1ccc(F)cc1Cl)C(=O)Nc1ccc(C)cn1` [Example 96, (2S)-2-(1-(2-chloro-4-fluorophenyl)-1H-pyrazolo[3,4-d]pyrimidin-4-yloxy)-3-methoxy-N-(5-methylpyridin-2-yl)propanamide], the pEC50 was 5.89.
In the case of `COC[C@H](Oc1ncnc2c1cnn2-c1ccccc1C#N)C(=O)Nc1ccc(C)cn1` [Example 97, (2S)-2-(1-(2-cyanophenyl)-1H-pyrazolo[3,4-d]pyrimidin-4-yloxy)-3-methoxy-N-(5-methylpyridin-2-yl)propanamide], the pEC50 is 5.92.
For `Cc1ccc(NC(=O)[C@H](COC(C)C)Oc2ncnc3c2cnn3-c2ccccc2C#N)nc1` [Example 97a, (2S)-2-[1-(2-cyanophenyl)pyrazolo[4,5-e]pyrimidin-4-yl]oxy-N-(5-methylpyridin-2-yl)-3-propan-2-yloxypropanamide], the negative logarithm of the EC50 (pEC50) was 6.34.
`Cc1ccc(NC(=O)[C@H](COC(C)C)Oc2ncnc3c2cnn3-c2ccccc2Cl)nc1` [Example 98, (2S)-2-(1-(2-chlorophenyl)-1H-pyrazolo[3,4-d]pyrimidin-4-yloxy)-3-isopropoxy-N-(5-methylpyridin-2-yl)propanamide]: the negative logarithm of the EC50 (pEC50) was 6.96.
As for `Cc1ccc(NC(=O)[C@@H](COC(C)C)Oc2ncnc3c2cnn3-c2ccccc2Cl)nc1` [Example 99, (2R)-2-(1-(2-chlorophenyl)-1H-pyrazolo[3,4-d]pyrimidin-4-yloxy)-3-isopropoxy-N-(5-methylpyridin-2-yl)propanamide], the pEC50 is 5.03.
On to `Cc1nsc(NC(=O)[C@H](COC(C)C)Oc2ncnc3c2cnn3-c2ccccc2Cl)n1` [Example 100, (2S)-2-[1-(2-Chlorophenyl)pyrazolo[4,5-e]pyrimidin-4-yl]oxy-N-(3-methyl-1,2,4-thiadiazol-5-yl)-3-propan-2-yloxypropanamide], for which the pEC50 is 6.00.
As to `COC[C@H](Oc1ncnc2c1cnn2-c1ccccc1Cl)C(=O)Nc1nc(C)ns1` [Example 101, (2S)-2-(1-(2-Chlorophenyl)-1H-pyrazolo[3,4-d]pyrimidin-4-yloxy)-3-methoxy-N-(3-methyl-1,2,4-thiadiazol-5-yl)propanamide], the pEC50 was 5.30.
To `COCC[C@H](Oc1ncnc2c1cnn2-c1ncccc1Cl)C(=O)Nc1ccc(C)cn1` [Example 102, (2S)-2-(1-(3-Chloropyridin-2-yl)-1H-pyrazolo[3,4-d]pyrimidin-4-yloxy)-4-methoxy-N-(5-methylpyridin-2-yl)butanamide] belongs 6.89; to `CCOC[C@H](Oc1ncnc2c1cnn2-c1ncccc1Cl)C(=O)Nc1ccc(C)cn1` [Example 103, (2S)-2-[1-(3-Chloropyridin-2-yl)pyrazolo[4,5-e]pyrimidin-4-yl]oxy-3-ethoxy-N-(5-methylpyridin-2-yl)propanamide], 6.55.
Turning to `CCOC[C@H](Oc1ncnc2c1cnn2-c1ncccc1Cl)C(=O)Nc1cnc(C)cn1` [Example 104, (2S)-2-[1-(3-Chloropyridin-2-yl)pyrazolo[4,5-e]pyrimidin-4-yl]oxy-3-ethoxy-N-(5-methylpyrazin-2-yl)propanamide], the pEC50 is 5.92.
Take `CCOC[C@H](Oc1ncnc2c1cnn2-c1ccccc1Cl)C(=O)Nc1cnc(C)cn1` [Example 105, (2S)-2-[1-(2-chlorophenyl)pyrazolo[4,5-e]pyrimidin-4-yl]oxy-3-ethoxy-N-(5-methylpyrazin-2-yl)propanamide]: the pEC50 was 6.29.
Take `Cc1cnc(NC(=O)[C@H](COC(C)C)Oc2ncnc3c2cnn3-c2nccnc2C)cn1` [Example 106, (2S)-3-Isopropoxy-N-(5-methylpyrazin-2-yl)-2-(1-(3-methylpyrazin-2-yl)-1H-pyrazolo[3,4-d]pyrimidin-4-yloxy)propanamide]: the pEC50 was 5.16.

The pEC50 is −log10 of the EC50, conventionally taken in molar units.
